Experimental data as given in paper PMC6128917, “Implications for the impairment of the rapid channel closing of Proteomonas sulcata anion channelrhodopsin 1 at high Cl^− concentrations” (Scientific Reports, 2018).

Target: T1, PsuACR1 (PsACR1)
T1 construct: 291 residues plus C-terminal His8 kept (299 residues in total)
Assay: UV-visible absorption titration, λmax red-shift fitted with Hill equation (n = […] fixed)
Format: binding, Proteomonas sulcata
Conditions: 10 mM MOPS pH 7.0, 25 °C; ionic strength kept at 1,000 mM with Na2SO4; initial (unphotolysed) state

Work on `Cl` [Cl^−] yielded a Kd of 5.5 ± 1.6 mM.
